# Several values for one entry are separate records, joined by “and”; a condition that tells them apart may be missing. Equal values may be shown once.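 Tested at 5 concentrations; 48 h exposure; 96-well plates; endpoints linearly interpolated, else capped at highest concentration. At the GI50, growth is halved. TGI: total growth inhibition.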
# Legend:
# Test in all cases: NCI tumour cell line growth inhibition, 48 h
# A549 NSCLC = system: A549 NSCLC
# HCT-15 colon = system: HCT-15 colon
# NCI-H23 lung = system: NCI-H23 lung
# NCI/ADR-RES ovarian = system: NCI/ADR-RES ovarian
# OVCAR-8 ovarian = system: OVCAR-8 ovarian
# RPMI-8226 leukemia = system: RPMI-8226 leukemia
# SF-539 CNS = system: SF-539 CNS
# SK-MEL-5 melanoma = system: SK-MEL-5 melanoma
# SK-OV-3 ovarian = system: SK-OV-3 ovarian
# UACC-257 melanoma = system: UACC-257 melanoma
SMILES,GI50 (A549 NSCLC),TGI (A549 NSCLC),GI50 (HCT-15 colon),TGI (HCT-15 colon),GI50 (NCI-H23 lung),TGI (NCI-H23 lung),GI50 (NCI/ADR-RES ovarian) [µM],TGI (NCI/ADR-RES ovarian),GI50 (OVCAR-8 ovarian),TGI (OVCAR-8 ovarian),GI50 (RPMI-8226 leukemia),TGI (RPMI-8226 leukemia),GI50 (SF-539 CNS),TGI (SF-539 CNS),GI50 (SK-MEL-5 melanoma),TGI (SK-MEL-5 melanoma),GI50 (SK-OV-3 ovarian),TGI (SK-OV-3 ovarian),GI50 (UACC-257 melanoma),TGI (UACC-257 melanoma)
O=C(Nc1ccc(-n2cc(-c3ccncc3)c(-c3ccc(Cl)c(O)c3)n2)cc1)c1ccc(Cl)c(Cl)c1,6.71 µM,> 100 µM,1.12 µM,> 100 µM,4.18 µM,> 100 µM,4.91,> 100 µM,4.68 µM,> 100 µM,0.736 µM,3.47 µM,0.694 µM,> 100 µM,1.15 µM,2.43 µM,2.08 µM,> 100 µM,4.74 µM,> 100 µM
CCCCCCCC(=O)OC[n+]1cccc(-c2c(COC(=O)NC(C)C)c(COC(=O)NC(C)C)c3n2CCC3)c1,–,> 100 µM,–,> 100 µM,–,> 100 µM,–,> 100 µM,–,> 100 µM,–,> 100 µM,–,> 89.5 µM,–,> 100 µM,–,> 100 µM,–,> 100 µM
c1ccc2[nH]c(-c3cscn3)nc2c1,–,> 100 µM,–,> 100 µM,–,> 100 µM,–,> 100 µM,–,> 100 µM,> 100 µM and 31.7 µM,> 100 µM,–,> 100 µM,–,> 100 µM,–,> 100 µM,–,> 100 µM
COc1cc([N+](=O)[O-])c(S(=O)(=O)O)cc1-[n+]1nc(C(=O)Nc2ccccc2)nn1-c1ccc([N+](=O)[O-])c(S(=O)(=O)[O-])c1,–,> 100 µM,–,> 100 µM,–,> 100 µM,–,> 100 µM,–,–,–,> 100 µM,–,> 100 µM,–,> 100 µM,–,> 100 µM,–,–
COc1ccc(-c2nn(-c3cccc(Cl)c3)cc2-c2c(C#N)c(=O)n3[nH]c(-c4ccc(C)o4)nc3c2C#N)cc1,4.57 µM,> 50 µM,16.6 µM,> 50 µM,8.09 µM,> 50 µM,> 50,> 50 µM,5.91 µM,> 50 µM,5.68 µM,> 50 µM,5.67 µM,> 50 µM,5.64 µM,12.4 µM,11.7 µM,> 50 µM,8.45 µM,> 50 µM
CCCC/C=C1/CCC(CN(C)C)C1=O (configuration not stated),–,16.5 µM,–,1.08 µM,–,8.18 µM,–,15 µM,–,4.08 µM,–,0.897 µM,–,6.05 µM,–,22 µM,–,25.1 µM,–,5.26 µM
Fc1cccc(C2ON=C(c3ccccc3)N2C23CC4CC(CC(C4)C2)C3)c1 (configuration not stated),–,> 10 µM,–,> 10 µM,–,> 10 µM,–,> 10 µM,–,> 10 µM,–,> 10 µM,–,> 10 µM,–,> 10 µM,–,> 10 µM,–,> 10 µM
NCC[PH+](c1ccccc1)c1ccccc1.NCC[PH+](c1ccccc1)c1ccccc1.[Cl-].[Pt+4],> 100 µM,> 100 µM,> 100 µM,> 100 µM,> 100 µM,> 100 µM,> 100,> 100 µM,> 100 µM,> 100 µM,14.7 µM,> 65.2 µM,> 100 µM,> 100 µM,> 100 µM,> 100 µM,> 100 µM,> 100 µM,> 100 µM,> 100 µM
CC(=O)O[C@H]1C(=O)[C@@]2(C)C([C@H](OC(=O)c3ccccc3)[C@]3(O)C[C@H](OC(=O)[C@H](O)[C@@H](NC(=O)c4ccc(Cl)cc4)c4ccccc4)C(C)=C1C3(C)C)C1(OC(C)=O)CO[C@@H]1C[C@@H]2O (some centres not stated),0.0219 µM,25 µM and > 100 µM,0.2 µM,25 µM and 4.92 µM,–,25 µM and > 100 µM,–,25 µM,–,–,–,11.7 µM,0.0119 µM,0.273 µM and 0.0407 µM,–,13.5 µM,–,13.7 µM and 36.7 µM,0.013 µM,25 µM and 36.8 µM
COc1cc(-c2ccc[nH]2)[nH]c1/C=C1\N=C(C)C(C(=O)NC(C)C)=C1C,2.94 µM,10.5 µM,2.08 µM,13.5 µM,3.63 µM,16 µM,4.24,16.5 µM,3.43 µM,13.5 µM,2.23 µM,5.97 µM,5.47 µM,20.2 µM,1.34 µM,2.7 µM,10.7 µM,22.8 µM,2.54 µM,6.42 µM
COc1ccc2cc1Oc1ccc(cc1)CC1c3c(cc(OC)c4c3Oc3cc5c(cc3O4)CCNC5C2)CCN1C (configuration not stated),–,4.07 µM,1.86 µM,3.73 µM and 4.31 µM,1.53 µM,4.54 µM and 3.22 µM,1.55,3.62 µM and 3.19 µM,–,3.2 µM,1.61 µM,4.3 µM and 3.42 µM,1.9 µM,3.23 µM and 3.69 µM,–,3.98 µM,1.74 µM,15.5 µM and 3.11 µM,1.9 µM,3.14 µM and 3.5 µM
COc1ccc(C2=NOC3=c4ccccc4=CSC3=C2c2ccccc2)cc1,> 100 µM,> 100 µM,22.3 µM,> 100 µM,46.2 µM,> 100 µM,41.7,> 100 µM,42.9 µM,> 100 µM,25.3 µM,> 100 µM,13.3 µM,37.5 µM,16.5 µM,39.7 µM,> 100 µM,> 100 µM,69.6 µM,> 100 µM
CN(Cc1cnc2nc(N)nc(N)c2n1)c1c(Cl)cc(C(=O)NC(CCC(=O)O)C(=O)O)cc1Br (configuration not stated),< 0.01 µM,> 100 µM,< 0.01 µM,> 100 µM,0.016 µM,> 100 µM,< 0.01,> 100 µM,< 0.01 µM,> 100 µM,< 0.01 µM,> 100 µM,< 0.01 µM,> 100 µM,0.0313 µM,> 100 µM,0.0595 µM,> 100 µM,–,> 100 µM
CCCCCCC1CCCCN1C(c1ccccc1)C(O)c1ccccc1 (configuration not stated),7.62 µM,21.4 µM,5.39 µM,18.1 µM,6.33 µM,20.9 µM,10.1,22.9 µM,14.8 µM,31.5 µM,2.61 µM,6.08 µM,11.6 µM,24.3 µM,2.48 µM,5.88 µM,12.2 µM,25.1 µM,4.79 µM,18.1 µM
CSc1ccc2c(c1)N(CCCN(C)C)c1ccccc1S2,–,30.2 µM,–,30.4 µM,–,31.5 µM,–,26.2 µM,–,36.1 µM,–,28.5 µM,–,44.9 µM,–,25.4 µM,–,29.4 µM,–,19.9 µM
CN1CCC(C(=O)Nc2n[nH]c3nnc(-c4ccccc4)cc23)CC1,> 25 µM,> 25 µM,> 25 µM,> 25 µM,> 25 µM,> 25 µM,> 25,> 25 µM,> 25 µM,> 25 µM,> 25 µM,> 25 µM,11.7 µM,> 25 µM,14.6 µM,> 25 µM,16.6 µM,> 25 µM,> 25 µM,> 25 µM
Cc1nc2sc(C(=O)Nc3cccc(Cl)c3)c(N)c2cc1C(O)c1ccccc1 (configuration not stated),1.59 µM,38.8 µM,0.384 µM,46.8 µM,1.4 µM,19.4 µM,0.929,13.1 µM,2.51 µM,> 100 µM,0.848 µM,> 100 µM,0.546 µM,7.25 µM,0.622 µM,2.2 µM,1.22 µM,16.1 µM,1.39 µM,22.2 µM
O=C([CH-]C(=O)c1ccccc1)c1ccccc1.[CH2-]C.[CH2-]C.[Tl+3],20.7 µM,66.3 µM,15.4 µM,> 100 µM,32.3 µM,> 100 µM,26.1,> 100 µM,15.7 µM,> 86.5 µM,10.4 µM,> 66 µM,23.2 µM,86 µM,16.5 µM,50.1 µM,32.5 µM,> 100 µM,45.6 µM,> 100 µM
Nc1nc2c([nH]1)c1[nH]c3ccccc3c1c1[nH]c3ccccc3c21,17.1 µM,33.4 µM,13.6 µM,31.4 µM,13.7 µM,29.5 µM,18.9,45.1 µM,4.56 µM,23.7 µM,9.83 µM,28.3 µM,12.8 µM,25.6 µM,14 µM,27 µM,16.2 µM,29.7 µM,18.5 µM,33.4 µM
COC(=O)c1sc(=S)c2sc(C(=O)OC)c(C(=O)OC)c2c1C(=O)OC,51.2 µM,> 100 µM,38 µM,> 100 µM,44.8 µM,> 100 µM,35.4,> 100 µM,57.7 µM,> 100 µM,22 µM,48.8 µM,36.7 µM,> 100 µM,39.1 µM,> 100 µM,> 100 µM,> 100 µM,26.8 µM,92 µM
CC(=O)OCCc1cc2ccccc2oc1=O,–,> 100 µM,–,> 100 µM,–,> 100 µM,–,> 100 µM,–,> 100 µM,–,> 100 µM,–,> 100 µM,–,> 100 µM,–,–,–,> 100 µM
CC(C)OC(=O)c1cc(NC(=S)OC(C)C)ccc1Cl,–,> 66.8 µM,–,53.4 µM,–,68.1 µM,–,> 63.4 µM,–,> 64.8 µM,–,> 76.8 µM,–,30.5 µM,–,33.1 µM,–,> 62.6 µM,–,50.9 µM
CC(C)(C)c1cnc(CSc2cnc(NC(=O)C3CCNCC3)s2)o1,0.256 µM and 0.23 µM,> 10 µM,4.76 µM and > 6.31 µM,> 100 µM,0.251 µM and 0.211 µM,0.767 µM and > 2.56 µM,45.5,> 100 µM,0.307 µM and 0.365 µM,19.7 µM and > 10 µM,0.118 µM and 0.243 µM,0.45 µM and 0.768 µM,0.243 µM and 0.179 µM,0.67 µM and 0.513 µM,0.238 µM and 0.563 µM,0.644 µM and 2.18 µM,0.475 µM and 0.569 µM,> 100 µM,0.221 µM and 0.317 µM,0.634 µM and 1.74 µM
Cc1nc(Nc2ccc(Cl)c(Cl)c2)sc1C(/C=C/c1ccc2c(c1)OCO2)=N/Nc1ccc([N+](=O)[O-])cc1[N+](=O)[O-],–,> 100 µM,–,> 100 µM,–,> 100 µM,–,> 100 µM,–,> 100 µM,–,> 100 µM,–,> 91.6 µM,–,> 100 µM,–,> 100 µM,–,> 100 µM
COc1ccccc1CNCCCN1C(=O)c2ccc3c4c(ccc(c24)C1=O)C(=O)N(CCCNCCCCN)C3=O,0.29 µM,1.06 µM,1.85 µM,10.8 µM,0.222 µM,0.595 µM,3.58,22.8 µM,0.244 µM,0.933 µM,0.445 µM,6.13 µM,0.296 µM,0.818 µM,0.164 µM,0.303 µM,0.495 µM,2.86 µM,0.166 µM,0.317 µM
COc1cc(OC)c(OC)cc1/C=C\c1ccnc2ccccc12,–,> 72.6 µM,–,> 100 µM,–,23.5 µM,–,12.1 µM,–,> 100 µM,–,99.1 µM,–,1.32 µM,–,19.7 µM,–,9.68 µM,–,> 100 µM
CC(C)(C)OC(=O)CC(S(=O)(=O)c1ccccc1)S(=O)(=O)c1ccccc1,18.3 µM,38.9 µM,1.87 µM,3.71 µM,14.6 µM,32.1 µM,17.4,37.8 µM,8.32 µM,23.3 µM,3.49 µM,19.7 µM,17.4 µM,33.1 µM,15.5 µM,28.8 µM,–,–,3.74 µM,15.7 µM
C=C(c1ccc(C(=O)NCCCn2ccnc2)cc1)c1cc2c(cc1C)C(C)(C)CCC2(C)C,1.14 µM,16.4 µM,0.118 µM,17 µM,3.69 µM,66.5 µM,0.0807,> 36.1 µM,2.95 µM,10.7 µM,–,–,0.0565 µM,2.17 µM,1.14 µM,2.43 µM,2.09 µM,5.59 µM,–,7.53 µM
